Holding throughout (assay): NCI anticancer screen, dose series, 48 h
Test [1] concerns TK-10 renal.
Test [2] concerns HCT-15 colon.
Test [3] has as its system K-562 leukemia.
The subject of test [4] is MDA-MB-231 breast.
The test system of test [5] is UACC-257 melanoma.
Test [6] concerns CAKI-1 renal.
Test [7] has as its system OVCAR-8 ovarian.
For test [8], the system named is NCI-H522 lung.
Test [9] has as its system HOP-62 NSCLC.
In test [10] the test system is SNB-75 CNS.

“And” between values parts separate entries of the source, which are not always exact repeats. Equal entries are not always repeated.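 All cell lines were grown in 96-well plates and treated with compound for 48 hours. At the GI50, growth is halved. TGI denotes the concentration required for complete inhibition of growth.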

As to `CCOc1ccc2nc(-c3ccc(O)cc3)sc2c1`, the TGI is more than 100 µM in test [1]; more than 100 µM in [2]; more than 100 µM in [3]; more than 100 µM in test [4]; 64.5 µM in [5]; more than 100 µM in test [6]. Besides, the TGI in test [7] is more than 100 µM; in test [8], 89.7 µM.

`O=C1OC(c2ccccc2)=N/C1=C\c1cccnc1`: the TGI in test [1], in test [2], in test [3], in test [5], in test [9] and in [7] was more than 100 µM in each case. In addition, the TGI in test [8] and in test [10] was more than 100 µM throughout.

With `C/C(CC/C(C)=N/O)=N\O`, the TGI in test [1], in test [2], in test [3], in test [4], in [5] and in [6] was more than 100 µM throughout. In addition, the TGI in test [9], in test [7], in [8] and in test [10] was more than 100 µM in each case.

Take `CS(=O)(=O)c1ccc(/C=N/NC(N)=S)cc1`: the TGI in test [1], in test [2], in [3], in test [4], in test [5] and in test [6] was more than 100 µM in each case. Further, the TGI in test [9], in test [7], in test [8] and in [10] was more than 100 µM each time.

Regarding `O=C1OC[C@@H]2[C@@H](O)CCCCCN12`, the TGI in test [1], in test [2], in test [3], in test [4], in test [5] and in [6] was more than 100 µM in each case. The TGI in [9], in [7], in test [8] and in [10] was more than 100 µM throughout.

As to `COc1cc2c(cc1OC)-c1cc3ccccc3c[n+]1CC2`, the TGI in test [1], in test [3], in [4], in [5], in test [6] and in test [9] was more than 100 µM in each case. Further, the TGI in [7] is more than 100 µM; in [8], 68.3 µM; in test [10], more than 100 µM.

With `CCS(=O)(=O)N1CCC(C(C)n2c(C)c(C(=O)NCc3c(OC)cc(C)[nH]c3=O)c3ccccc32)CC1` (stereo unspecified), the GI50 in [1], in [2], in test [5], in [6], in test [9] and in test [7] was more than 100 µM in each case. The GI50 in [8] was more than 100 µM; in test [10], 36.3 µM. Further, the TGI in [1], in test [2], in test [5], in [6], in test [9] and in test [7] was more than 100 µM in each case. In addition, the TGI in test [8] and in [10] was more than 100 µM each time.

As to `COC1=C2CC(C)CC(OC)C(O)C(C)/C=C(\C)C(OC(N)=O)C(OC)/C=C\C=C(/C)C(=O)NC(=C(C=NC(C)(C)C)C1=O)C2=O` (stereo unspecified), the TGI in [2] was determined as 33.1 µM; in test [3] it was 6.26 µM; in test [5], 17.8 µM; in test [6], 23.7 µM; in test [9], 41 µM; in test [7], 73.6 µM. Also, the TGI stood at 1.63 µM in test [8] and 6.15 µM in test [10].

For the compound `CC[C@]1(O)C[C@H]2CN(CCc3c([nH]c4ccccc34)[C@@](C(=O)OC)(c3cc4c(cc3OC)N(C=O)[C@H]3[C@@](O)(C(=O)OC)[C@H](OC(C)=O)[C@]5(CC)C=CCN6CC[C@]43[C@@H]65)C2)C1`, the figures for the GI50 in test [4], in [6] and in [8] were 0.00138 µM, 1.95 µM and 0.00705 µM, respectively. The TGI in [6] is 9.22 µM and 10.8 µM and 77.2 µM; in test [9], 56.9 µM and 142 µM; in [8] it was 0.226 µM and 0.143 µM.

As to `Cc1ccccc1C(=O)c1c(O)c2c(c(O)c1Br)CCCC2`, the TGI in test [1] is 31.7 µM; in test [2] it was 32.9 µM; in test [3] it was 47.8 µM; in test [5] it was 29.2 µM; in test [6], 35.9 µM; in [9], more than 100 µM. The TGI in test [7] was 36 µM; in test [8] it was 23.4 µM; in [10], 34.8 µM.

For `O=[N+]([O-])c1nc(-c2ccccn2)[nH]c1[N+](=O)[O-]`, the TGI in test [1] is more than 100 µM; in test [3], more than 100 µM; in test [5], more than 100 µM; in [6], more than 100 µM; in test [9], more than 100 µM; in test [8], 37.1 µM. Further, in test [10], the TGI was more than 100 µM.

Consider `CCOC(=O)NC(Nc1ncccn1)(C(F)(F)F)C(F)(F)F`, for which the TGI in test [1], in test [2], in test [3], in [4], in test [5] and in test [9] was more than 100 µM in each case. The TGI in test [8] and in [10] was more than 100 µM throughout.

For `NC(=O)c1nnc2ccc(F)cc2c1N`, the TGI in [1], in test [2], in test [3], in test [4], in test [5] and in [6] was more than 100 µM throughout. Moreover, the TGI in [9], in test [7], in test [8] and in test [10] was more than 100 µM each time.

For `Nc1ncnc2c1ncn2C1OC(COP(=O)(O)O)C(O)C1O` (stereo unspecified), the TGI in test [2] is more than 50 µM; in [3] it was more than 50 µM; in test [5], more than 50 µM; in [6], more than 50 µM; in test [9], more than 50 µM; in [7], 15.2 µM. Further, the TGI in [8] and in [10] was more than 50 µM throughout.

Consider `CC1(C)CCC[C@@]2(C)C1CCC1(C)C(CCc3ccoc3)/C(=C/OS(=O)(=O)O)CCC12` (stereo partly specified) (tested in a mixture with another compound), for which the TGI in test [1], in [2], in test [3], in test [5], in test [6] and in [9] was more than 100 µM in each case. The TGI in test [7] and in test [10] was more than 100 µM throughout.

For the compound `C/C=C/[C@H]1O[C@@](O)([C@@H](C)[C@H](O)[C@H](C)[C@H]2OC(=O)/C(OC)=C/C(C)=C/[C@@H](C)[C@@H](O)[C@@H](CC)[C@@H](O)[C@H](C)C/C(C)=C/C=C/[C@@H]2OC)C[C@H](OC2CC(O)C(O)C(C)O2)[C@@H]1C` (stereo partly specified), the TGI in test [1] was 18.9 µM; in [2] it was 8.8 µM; in [4], 13.9 µM; in test [5] it was less than 0.0075 µM; in test [6] it was 11.9 µM; in test [9], 2.7 µM. Moreover, the TGI in test [7] amounted to 12 µM; in test [8], 1.48 µM; in [10], 46 µM.

As to `C=C(CN(C)C)C(=O)c1ccccc1C`, the TGI in test [1] was more than 100 µM; in [2], more than 63.1 µM; in test [3] it was 45.9 µM; in [5] it was more than 100 µM; in [6], 62.6 µM; in test [9] it was more than 100 µM. Further, the TGI in test [7] was more than 100 µM; in test [8], 12.3 µM; in test [10], more than 100 µM.

Take `O=C(Nc1cccc(-n2ccc3c(NC(=O)c4ccccc4)nccc32)c1)c1ccc(N2CCOCC2)c(C(F)(F)F)c1`: the GI50 in test [1] was 0.0782 µM; in [2] it was 0.037 µM; in test [3], 0.0387 µM; in [4], 0.127 µM; in test [5], 2.36 µM; in test [6], 0.0462 µM. For the same compound, the GI50 is 0.0536 µM in [9], 0.055 µM in [7], 0.0319 µM in [8] and 0.023 µM in test [10]. Also, the TGI is more than 100 µM in test [1]; more than 64.7 µM in test [2]; more than 100 µM in test [3]; 3.42 µM in test [4]; more than 100 µM in test [5]; 14.8 µM in test [6]. The TGI in test [9] is more than 94.7 µM; in [7] it was more than 100 µM; in test [8] it was 0.545 µM; in test [10] it was 25.9 µM.

Consider `O=C(O)c1cc2ccccc2c(N=Nc2ccccc2)c1O`, for which the TGI in test [1] is more than 100 µM; in test [2], more than 100 µM; in [3] it was more than 100 µM; in test [4], more than 100 µM; in test [5], 30.5 µM; in test [6], 84.2 µM. Also, the TGI in test [9] is 32.5 µM; in [7], more than 100 µM; in [8], 59.6 µM; in test [10] it was 36 µM.

On to `O=C(O)c1ccccc1NC(c1ccccc1)c1ccc2cccnc2c1O` (stereo unspecified), for which the TGI is 51.1 µM in test [1]; more than 58.9 µM in [2]; 53.3 µM in test [3]; more than 62.4 µM in [4]; 43.9 µM in test [5]; 50.1 µM in test [6]. Also, the TGI in test [9] is more than 100 µM; in test [7], more than 100 µM; in test [8], 23.3 µM; in [10], more than 86.7 µM.

For `Fc1ccc2[nH]cc(-c3nc(-c4c[nH]c5ncccc45)cs3)c2c1`, the GI50 was more than 100 µM in [1], 5.03 µM in [3], more than 100 µM in test [5] and 1.58 µM in test [10]. The TGI in test [1], in test [3], in test [5] and in test [10] was more than 100 µM in each case.

The values are drawn from PubChem BioAssay (NCI).
